Results published in US20240239806A1, “COMPOUNDS, COMPOSITIONS AND METHODS OF TREATING DISORDERS” (Chengdu Anticancer Bioscience, Ltd., priority 2021, published 2024).
Where two headings read alike, the source gives them in different places.

Tests used:
Format in all cases: cell-based
NCI-H23 [1] = assay: MECP in cancer cell line; conditions: Homo sapiens
Description: (§1) Six lung cancer cell lines (NCI-H23, NCI-H460, NCI-H596, NCI-H2170, Calu-6 and A549), two colon cancer cell lines (HCT116 and SW460), one breast cancer cell line MDA-MB-231, one gastric cancer cell line NCI-N87, one prostate cancer cell line DU145, one cervical cancer cell line Hela, and one glioblastoma cell line T98G were obtained from ATCC. The T2 HCC cell line was derived from a mouse liver cancer model initiated by a transgene of MYC. All cell lines were cultured in DMEM (Gibco, Cleveland, TN, USA) supplemented with 5% fetal bovine serum (Gibco), penicillin (100 U/mL)—streptomycin (100 μg/mL) (Gibco, Cat. No. 15140-122), 2 mM L-glutamine (Gibco, 200 mM solution, Cat. No. 25030081), and 1 mM sodium pyruvate (Gibco, 100 mM solution, Cat. No. 11360070) at 37° C. in a humidified incubator that was maintained at 5% CO2. […]

NCI-N87 [2] = assay: MECP in cancer cell line; conditions: Homo sapiens
Description: as §1

RPEMYC^H2B-GFP cells = assay: Phenotypic screening assay (mitotic arrest, polyploidy); conditions: 1 nM to 30 μM; for IC50: read-out: Proliferative arrest (>50%)
Procedure, shortened: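 RPE cells expressing MYC and H2B-EGFP treated with compound at 1 nM–30 μM; mitotic index scored at 24 h and polyploidy (DNA content) at 48 h by automated imaging, with reads at 24, 48 or 72 h. Hits show transient mitotic arrest followed by polyploid accumulation.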

NCI-H23 [3] = assay: MTT assay of cellular proliferation; conditions: Homo sapiens, 50% inhibition of cellular proliferation
Description: (§2) Six lung cancer cell lines (NCI-H23, NCI-H460, NCI-H596, NCI-H2170, Calu-6 and A549), two colon cancer cell lines (HCT116 and SW460), one breast cancer cell line MDA-MB-231, one gastric cancer cell line NCI-N87, one prostate cancer cell line DU145, one cervical cancer cell line Hela, and one glioblastoma cell line T98G were obtained from ATCC. The T2 HCC cell line was derived from a mouse liver cancer model initiated by a transgene of MYC. All cell lines were cultured in DMEM (Gibco, Cleveland, TN, USA) supplemented with 5% fetal bovine serum (Gibco), penicillin (100 U/mL)—streptomycin (100 μg/mL) (Gibco, Cat. No. 15140-122), 2 mM L-glutamine (Gibco, 200 mM solution, Cat. No. 25030081), and 1 mM sodium pyruvate (Gibco, 100 mM solution, Cat. No. 11360070) at 37° C. in a humidified incubator that was maintained at 5% CO2.
(§3) The MTT assay measures cellular metabolic activity as a proxy for cell viability and involves the conversion of the water-soluble yellow dye MTT [3-(4,5-dimethylthiazol-2-yl)-2,5-diphenyltetrazolium bromide] into an insoluble purple formazan by the action of mitochondrial reductase. Formazan is then solubilized and its concentration is determined by measuring the optical density (OD) value at a wavelength of 570 nm. The value is in proportional to the number of live cells with excellent linearity up to ˜10^6 cells per well. The MTT assay was used to determine the EC50 value, the concentration of a compound that leads to 50% inhibition of cellular proliferation. Briefly, cells were split when growing to the mid-Log phase. Cells in 100 μL of culture medium were seeded into each well of 96-well microplates and cultivated for 15-24 hours to reach a confluence of 20-30% and were then exposed to drugs at concentrations ranging from 1 nM to 30 μM. At the endpoint, 20 μL of a MTT stock solution in DMSO (5 mg/mL) was added to each well that contains 100 μL of DMEM. The microplates were left in the cell culture incubator for 3-4 h before subjected to solubilization and determination of formazan at A570 in a microplate reader (BioTek ELX808iu). […] Therefore, these compounds might hold a broad utility in the treatment of a large variety of human malignancies.

Hela [4] = assay: MTT assay of cellular proliferation; conditions: Homo sapiens, 50% inhibition of cellular proliferation
Description: as §2, §3

NCI-N87 [5] = assay: MTT assay of cellular proliferation; conditions: Homo sapiens, 50% inhibition of cellular proliferation
Description: as §2, §3

SW480 [6] = assay: MTT assay of cellular proliferation; conditions: Homo sapiens, 50% inhibition of cellular proliferation
Description: as §2, §3

T2 HCC [7] = assay: MTT assay of cellular proliferation; conditions: Mus musculus, 50% inhibition of cellular proliferation
Description: as §2, §3

MDA-MB-231 [8] = assay: MTT assay of cellular proliferation; conditions: Homo sapiens; MDA-MB-231, MTT, 50% inhibition of cellular proliferation
Description: as §2, §3

HCT116 [9] = assay: MTT assay of cellular proliferation; conditions: Homo sapiens, HCT-116, 50% inhibition of cellular proliferation
Description: as §2, §3

A549 [10] = assay: MTT assay of cellular proliferation; conditions: Homo sapiens, 50% inhibition of cellular proliferation
Description: as §2, §3

Hela [11] = assay: MECP in cancer cell line; conditions: Homo sapiens
Description: as §2
(§4) We have previously developed a mechanism-informed phenotypic screening assay to identify novel antimitotic agents. Equipped with a prior understanding of the versatile functions of the chromosomal passenger protein (CPP) complex in orchestrating karyokinesis and cytokinesis, the screening assay is to score for phenotypes typically seen when the CPP complex is disabled. Specifically, the parameters for a positive hit are a temporary elevation of mitotic index (MI) at 24 hours of drug treatment and an accumulation of polyploid cells at 48 hours of drug treatment, indicative of mitotic arrest and cytokinetic failure respectively. These parameters exclude compounds that elicit only a prolonged arrest of cells in mitosis, a phenotype typically provoked by spindle toxins. The screening procedure is briefly summarized here. RPEMYC^H2B-GFP cells engineered to express a Histone 2B-EGFP fusion protein were passaged as batches of 96-well plates, 18-24 hours before exposure to the chemical compounds of the present disclosure at concentrations from 1 nM to 30 μM. At 24, 48 or 72 hours after initiation of treatment, cells were analyzed for either an arrest in mitosis or a change in DNA content by GE IN-Cell Analyzer 2000. As set forth in Table 2 below, a value of greater than or equal to 1 nM and less than or equal to 1.0 μM is marked “A”; a value greater than 1.00 μM and less than or equal to 10.0 μM is marked “B”; a value greater than 10.0 μM and less than or equal to 30.0 μM is marked “C”; and a value greater than 30.0 μM is marked “D.”

SW480 [12] = assay: MECP in cancer cell line; conditions: Homo sapiens
Description: as §2, §4

T2 HCC [13] = assay: MECP in cancer cell line; conditions: Mus musculus
Description: as §2, §4

MDA-MB-231 [14] = assay: MECP in cancer cell line; conditions: Homo sapiens
Description: as §2, §4

HCT116 [15] = assay: MECP in cancer cell line; conditions: Homo sapiens, HCT-116
Description: as §2, §4

A549 [16] = assay: MECP in cancer cell line; conditions: Homo sapiens
Description: as §2, §4

[17] = read-out: Min. Effective conc. for Polyploidy (≥5%)

SMILES | minimal effective concentration (NCI-H23 [1]) [µM] | minimal effective concentration (NCI-N87 [2]) [µM] | minimal effective concentration (RPEMYC^H2B-GFP cells; [17]) [µM] | minimal effective concentration (RPEMYC^H2B-GFP cells; read-out: Mitotic Arrest (≥5%)) [µM] | IC50 (RPEMYC^H2B-GFP cells) [nM] | EC50 (NCI-H23 [3]) [nM] | EC50 (Hela [4]) [nM] | EC50 (NCI-N87 [5]) [nM] | EC50 (SW480 [6]) [nM] | EC50 (T2 HCC [7]) [nM] | EC50 (MDA-MB-231 [8]) [nM] | EC50 (HCT116 [9]) [nM] | EC50 (A549 [10]) [nM] | minimal effective concentration (Hela [11]) [µM] | minimal effective concentration (SW480 [12]) [µM] | minimal effective concentration (T2 HCC [13]) [µM] | minimal effective concentration (MDA-MB-231 [14]) [µM] | minimal effective concentration (HCT116 [15]) [µM] | minimal effective concentration (A549 [16]) [µM] | also measured
COc1cc(Oc2ccnc3cc(OC)c(C(N)=O)cc23)cc(-n2cccn2)c1 [Compound 30, 7-methoxy-4-(3-methoxy-5-(1H-pyrazol-1-yl)phenoxy)quinoline-6-carboxamide] | 0.001 to 1 | 0.001 to 1 | 0.001 to 1 | 0.001 to 1 | 1 to 1000 | 1 to 1000 | 1 to 1000 | 1 to 1000 | 1 to 1000 | 1 to 1000 | 1 to 1000 | 1 to 1000 | 1 to 1000 | 0.001 to 1 | 0.001 to 1 | 0.001 to 1 | 0.001 to 1 | 0.001 to 1 | 0.001 to 1 | Min. Effective conc. for Polyploidy (≥5%) (RPEMYC^H2B-GFP cells): D (a value greater than 30.0 μM); Mitotic Arrest (≥5%) (RPEMYC^H2B-GFP cells): D (a value greater than 30.0 μM); Proliferative arrest (>50%) (RPEMYC^H2B-GFP cells): D (a value greater than 30.0 μM); Along with Cell Death (RPEMYC^H2B-GFP cells; listed as 25): D (a value greater than 30.0 μM)
COC(=O)c1cc2c(Oc3cc(OC)cc(-n4cccn4)c3)ccnc2cc1OC [Compound 32, methyl 7-methoxy-4-(3-methoxy-5-(1H-pyrazol-1-yl)phenoxy)quinoline-6-carboxylate] | 0.001 to 1 | 1 to 10 | 0.001 to 1 | 0.001 to 1 | 1 to 1000 | 1 to 1000 | 1 to 1000 | 1000 to 10000 | 1000 to 10000 | 1000 to 10000 | 1 to 1000 | 1000 to 10000 | 1000 to 10000 | 0.001 to 1 | 0.001 to 1 | 0.001 to 1 | 1 to 10 | 0.001 to 1 | 0.001 to 1 | –
COc1cc(Oc2ncnc3cc[nH]c23)cc(-n2cccn2)c1 [Compound 35, 4-(3-methoxy-5-(1H-pyrazol-1-yl)phenoxy)-5H-pyrrolo[3,2-d]pyrimidine] | 0.001 to 1 | 0.001 to 1 | 0.001 to 1 | 0.001 to 1 | 1 to 1000 | 1 to 1000 | 1 to 1000 | 1 to 1000 | 1 to 1000 | 1 to 1000 | 1 to 1000 | 1 to 1000 | 1 to 1000 | 0.001 to 1 | 0.001 to 1 | 0.001 to 1 | 0.001 to 1 | 0.001 to 1 | 0.001 to 1 | –
COc1cc(Oc2ncnc3ccsc23)cc(-n2cccn2)c1 [Compound 38, 4-(3-methoxy-5-(1H-pyrazol-1-yl)phenoxy)thieno[3,2-d]pyrimidine] | 0.001 to 1 | 0.001 to 1 | 0.001 to 1 | 0.001 to 1 | 1 to 1000 | 1 to 1000 | 1 to 1000 | 1 to 1000 | 1 to 1000 | 1 to 1000 | 1 to 1000 | 1 to 1000 | 1 to 1000 | 0.001 to 1 | 0.001 to 1 | 0.001 to 1 | 0.001 to 1 | 0.001 to 1 | 0.001 to 1 | –
COC(=O)c1ccc2nccc(Oc3cc(NC(C)=O)cc(OC)c3)c2c1 [Compound 42, methyl 4-(3-acetamido-5-methoxyphenoxy)quinoline-6-carboxylate] | 0.001 to 1 | 0.001 to 1 | 0.001 to 1 | 0.001 to 1 | 1 to 1000 | 1 to 1000 | 1 to 1000 | 1 to 1000 | 1 to 1000 | 1 to 1000 | 1 to 1000 | 1 to 1000 | 1 to 1000 | 0.001 to 1 | 0.001 to 1 | 0.001 to 1 | 0.001 to 1 | 0.001 to 1 | 0.001 to 1 | –
